{
  "source": "paper PMC5218480",
  "about": "(PLoS ONE, 2017)",
  "system": "MV-4-11 cells",
  "test": "Gene expression microarray analysis (Affymetrix PrimeView) and GSEA",
  "type": "cell-based, human",
  "design": "RFU PODN (11730768_x_at) / Fold change /veh PODN (11730768_x_at) / RFU LINC00158 (11744669_a_at) / Fold change /veh LINC00158 (11744669_a_at) / RFU DUSP10 (11751237_a_at) / Fold change /veh DUSP10 (11751237_a_at) / RFU ID3 (11757404_x_at) / Fold change /veh ID3 (11757404_x_at) / RFU PLEKHG5 (11737974_s_at) / Fold change /veh PLEKHG5 (11737974_s_at) / RFU LRRC4B (11730491_at) / Fold change /veh LRRC4B (11730491_at) / RFU GIMAP4 (11747438_a_at) / Fold change /veh GIMAP4 (11747438_a_at) / RFU KRT8 (11758183_x_at) / Fold change /veh KRT8 (11758183_x_at) / RFU CNN1 (11734310_a_at) / Fold change /veh CNN1 (11734310_a_at) / RFU VPS37D (11726825_at) / Fold change /veh VPS37D (11726825_at) / RFU C10orf10 (11716522_x_at) / Fold change /veh C10orf10 (11716522_x_at) / RFU KIR2DL2 /// KIR2DL4 /// KIR2DL5A /// KIR2DL5B /// KIR2DS1 /// KIR2DS2 /// KIR2DS3 /// KIR2DS4 /// KIR3DL3 /// KIR3DL3 /// KIR3DS1 (11738374_at) / Fold change /veh KIR2DL2 /// KIR2DL4 /// KIR2DL5A /// KIR2DL5B /// KIR2DS1 /// KIR2DS2 /// KIR2DS3 /// KIR2DS4 /// KIR3DL3 /// KIR3DL3 /// KIR3DS1 (11738374_at) / RFU C1QL1 (11718748_at) / Fold change /veh C1QL1 (11718748_at) / RFU TMPRSS4 (11747572_a_at) / Fold change /veh TMPRSS4 (11747572_a_at) / RFU HAMP (11756126_x_at) / Fold change /veh HAMP (11756126_x_at) / RFU RNFT2 (11725882_a_at) / Fold change /veh RNFT2 (11725882_a_at) / RFU NR4A2 (11747474_a_at) / Fold change /veh NR4A2 (11747474_a_at) / RFU ABCC12 (11746883_a_at) / Fold change /veh ABCC12 (11746883_a_at) / RFU TMEM136 (11760407_x_at) / Fold change /veh TMEM136 (11760407_x_at) / RFU CLDN22 /// WWC2 (11732394_at) / Fold change /veh CLDN22 /// WWC2 (11732394_at) / RFU HLA-DPB1 (11760878_x_at) / Fold change /veh HLA-DPB1 (11760878_x_at) / RFU SPINT1 (11716480_a_at) / Fold change /veh SPINT1 (11716480_a_at) / RFU GAP43 (11754022_s_at) / Fold change /veh GAP43 (11754022_s_at) / RFU A4GNT (11735810_at) / Fold change /veh A4GNT (11735810_at) / RFU PRB3 (11715151_x_at) / Fold change /veh PRB3 (11715151_x_at) / RFU TUBB4B (11761932_at) / Fold change /veh TUBB4B (11761932_at) / RFU CAPN14 (11732068_a_at) / Fold change /veh CAPN14 (11732068_a_at) / RFU TMCC2 (11721928_a_at) / Fold change /veh TMCC2 (11721928_a_at) / RFU IRGQ (11745062_a_at) / Fold change /veh IRGQ (11745062_a_at) / RFU FAM174B (11720279_a_at) / Fold change /veh FAM174B (11720279_a_at) / RFU TMPRSS4 (11748680_a_at) / Fold change /veh TMPRSS4 (11748680_a_at) / RFU FAM212B (11763350_a_at) / Fold change /veh FAM212B (11763350_a_at) / RFU PLEKHG5 (11743358_a_at) / Fold change /veh PLEKHG5 (11743358_a_at) / RFU ZSCAN30 (11745921_a_at) / Fold change /veh ZSCAN30 (11745921_a_at) / RFU CMKLR1 (11741424_a_at) / Fold change /veh CMKLR1 (11741424_a_at) / RFU LOC101060620 /// MAPK8IP1 (11723275_at) / Fold change /veh LOC101060620 /// MAPK8IP1 (11723275_at) / RFU SPTSSB (11747773_x_at) / Fold change /veh SPTSSB (11747773_x_at) / RFU PRSS12 (11739890_at) / Fold change /veh PRSS12 (11739890_at) / RFU BIN1 (11741810_x_at) / Fold change /veh BIN1 (11741810_x_at) / RFU WNT11 (11732464_a_at) / Fold change /veh WNT11 (11732464_a_at) / RFU C10orf10 (11716521_a_at) / Fold change /veh C10orf10 (11716521_a_at) / RFU C5orf56 (11738089_at) / Fold change /veh C5orf56 (11738089_at) / RFU CYB561 (11721691_x_at) / Fold change /veh CYB561 (11721691_x_at) / RFU ANKRD19P (11752326_a_at) / Fold change /veh ANKRD19P (11752326_a_at) / RFU OR2T12 /// OR2T33 /// OR2T8 (11738714_s_at) / Fold change /veh OR2T12 /// OR2T33 /// OR2T8 (11738714_s_at) / RFU VCAN (11748164_a_at) / Fold change /veh VCAN (11748164_a_at) / RFU JSRP1 (11732532_at) / Fold change /veh JSRP1 (11732532_at) / RFU KRTAP10-11 (11738290_x_at) / Fold change /veh KRTAP10-11 (11738290_x_at) / RFU MYO3A (11730013_a_at) / Fold change /veh MYO3A (11730013_a_at) / RFU EBF3 (11725865_a_at) / Fold change /veh EBF3 (11725865_a_at) / RFU CAMK2N1 (11719241_x_at) / Fold change /veh CAMK2N1 (11719241_x_at) / RFU C5orf56 (11738088_a_at) / Fold change /veh C5orf56 (11738088_a_at) / RFU OLFML3 (11715873_a_at) / Fold change /veh OLFML3 (11715873_a_at) / RFU LOC100653217 /// NTM (11731650_a_at) / Fold change /veh LOC100653217 /// NTM (11731650_a_at) / RFU MAPK11 (11762145_a_at) / Fold change /veh MAPK11 (11762145_a_at) / RFU FIZ1 (11724087_x_at) / Fold change /veh FIZ1 (11724087_x_at) / RFU OASL (11726364_x_at) / Fold change /veh OASL (11726364_x_at) / RFU SOX15 (11748057_x_at) / Fold change /veh SOX15 (11748057_x_at) / RFU CD79A (11719716_a_at) / Fold change /veh CD79A (11719716_a_at) / RFU HIST1H1D (11736915_at) / Fold change /veh HIST1H1D (11736915_at) / RFU CASKIN2 (11723855_a_at) / Fold change /veh CASKIN2 (11723855_a_at) / RFU LOC730098 (11760151_x_at) / Fold change /veh LOC730098 (11760151_x_at) / RFU OR4N2 (11742367_at) / Fold change /veh OR4N2 (11742367_at) / RFU PRRT2 (11749266_a_at) / Fold change /veh PRRT2 (11749266_a_at) / RFU SNX32 (11753110_a_at) / Fold change /veh SNX32 (11753110_a_at) / RFU CDHR5 (11726645_a_at) / Fold change /veh CDHR5 (11726645_a_at) / RFU RCAN1 (11760418_a_at) / Fold change /veh RCAN1 (11760418_a_at) / RFU FAM167A (11723789_a_at) / Fold change /veh FAM167A (11723789_a_at) / RFU FAM26E (11764081_at) / Fold change /veh FAM26E (11764081_at) / RFU ISYNA1 (11749810_s_at) / Fold change /veh ISYNA1 (11749810_s_at) / RFU ACY1 (11761880_at) / Fold change /veh ACY1 (11761880_at) / RFU 11764098_at / Fold change /veh 11764098_at / RFU SAMD14 (11745864_x_at) / Fold change /veh SAMD14 (11745864_x_at) / RFU NPB (11741838_a_at) / Fold change /veh NPB (11741838_a_at) / RFU TMPRSS6 (11731388_a_at) / Fold change /veh TMPRSS6 (11731388_a_at) / RFU KRTAP10-2 (11738614_at) / Fold change /veh KRTAP10-2 (11738614_at) / RFU ARHGAP8 /// PRR5-ARHGAP8 (11727945_x_at) / Fold change /veh ARHGAP8 /// PRR5-ARHGAP8 (11727945_x_at) / RFU KRTAP5-7 /// NADSYN1 (11734609_at) / Fold change /veh KRTAP5-7 /// NADSYN1 (11734609_at) / RFU RASL12 (11751679_a_at) / Fold change /veh RASL12 (11751679_a_at) / RFU CDKN2B (11736163_a_at) / Fold change /veh CDKN2B (11736163_a_at) / RFU PRF1 (11729649_at) / Fold change /veh PRF1 (11729649_at) / RFU, ZNF638 /// ZNF638-IT1 / Fold change vs veh, ZNF638 /// ZNF638-IT1 / RFU, PANK3 / Fold change vs veh, PANK3 / RFU, SH3YL1 / Fold change vs veh, SH3YL1 / RFU, ZEB2 / Fold change vs veh, ZEB2 / RFU, NRIP1 / Fold change vs veh, NRIP1 / RFU, PTTG1IP / Fold change vs veh, PTTG1IP / RFU, CAPN2 / Fold change vs veh, CAPN2 / RFU, MED14 / Fold change vs veh, MED14 / RFU, SNORA58 / Fold change vs veh, SNORA58 / RFU, C1orf63 / Fold change vs veh, C1orf63 / RFU, LRRFIP1 / Fold change vs veh, LRRFIP1 / RFU, NDUFAF7 / Fold change vs veh, NDUFAF7 / RFU, SLC12A2 / Fold change vs veh, SLC12A2 / RFU, IBTK / Fold change vs veh, IBTK / RFU, ESF1 / Fold change vs veh, ESF1 / Fold change vs veh, TMEM50B / RFU, TAOK1 / Fold change vs veh, TAOK1 / RFU, ACBD3 / Fold change vs veh, ACBD3 / RFU, TMA16 / Fold change vs veh, TMA16 / RFU, RWDD3 / Fold change vs veh, RWDD3 / RFU, BCAT1 / Fold change vs veh, BCAT1 / RFU, EDEM3 / Fold change vs veh, EDEM3 / RFU, TMEM33 / Fold change vs veh, TMEM33 / RFU, WDR75 / Fold change vs veh, WDR75 / RFU, AHCTF1 / Fold change vs veh, AHCTF1 / RFU, TFRC / Fold change vs veh, TFRC / RFU, ZDHHC17 / Fold change vs veh, ZDHHC17 / RFU, NOM1 / Fold change vs veh, NOM1 / RFU, ARL8B / Fold change vs veh, ARL8B / RFU, ZBTB11 / Fold change vs veh, ZBTB11 / RFU, TAMM41 / Fold change vs veh, TAMM41 / RFU, KIAA1704 /// LOC100996395 / Fold change vs veh, KIAA1704 /// LOC100996395 / RFU, ING1 / Fold change vs veh, ING1 / RFU, TRMT61B / Fold change vs veh, TRMT61B / RFU, FUBP3 / Fold change vs veh, FUBP3 / RFU, TP53 / Fold change vs veh, TP53 / RFU, TNKS2 / Fold change vs veh, TNKS2 / RFU, ZFP14 / Fold change vs veh, ZFP14 / RFU, ACTR2 / Fold change vs veh, ACTR2 / RFU, PPP3R1 / Fold change vs veh, PPP3R1 / RFU, PIK3R1 / Fold change vs veh, PIK3R1 / RFU, HNRNPA1 / Fold change vs veh, HNRNPA1 / RFU, RNF170 / Fold change vs veh, RNF170 / RFU, ZNF28 / Fold change vs veh, ZNF28 / RFU, RNGTT / Fold change vs veh, RNGTT / RFU, OGT / Fold change vs veh, OGT / RFU, BRD1 / Fold change vs veh, BRD1 / RFU, MARS / Fold change vs veh, MARS / RFU, ZNF655 / Fold change vs veh, ZNF655 / RFU, FAHD1 / Fold change vs veh, FAHD1 / RFU, BDP1 / Fold change vs veh, BDP1 / RFU, LRRCC1 / Fold change vs veh, LRRCC1 / RFU, ARID1A / Fold change vs veh, ARID1A / RFU, ZNF146 / Fold change vs veh, ZNF146 / RFU, ZNF330 / Fold change vs veh, ZNF330 / RFU, GPN3 / Fold change vs veh, GPN3 / RFU, C9orf123 / Fold change vs veh, C9orf123 / RFU, N4BP2L2 / Fold change vs veh, N4BP2L2 / RFU, ARFIP1 / Fold change vs veh, ARFIP1 / RFU, FAM179B / Fold change vs veh, FAM179B / RFU, BCL10 / Fold change vs veh, BCL10 / RFU, UHRF1BP1L / Fold change vs veh, UHRF1BP1L / RFU, BET1 / Fold change vs veh, BET1 / RFU, CNOT2 / Fold change vs veh, CNOT2 / RFU, ZNF268 / Fold change vs veh, ZNF268 / Fold change vs veh, ZNF507 / RFU, DGCR2 / Fold change vs veh, DGCR2 / RFU, WDSUB1 / Fold change vs veh, WDSUB1 / Fold change vs veh, HSP90B1 /// MIR3652 / RFU, ADSS / Fold change vs veh, ADSS / RFU, GK / Fold change vs veh, GK / RFU, ZNF148 / Fold change vs veh, ZNF148 / RFU, TAF9 / Fold change vs veh, TAF9 / RFU, SLC1A5 / Fold change vs veh, SLC1A5 / RFU, SLMO2 / Fold change vs veh, SLMO2 / RFU, ABCC4 / Fold change vs veh, ABCC4 / RFU, LOC101060439 /// RAP1B / Fold change vs veh, LOC101060439 /// RAP1B / RFU, RFX7 / Fold change vs veh, RFX7 / RFU, GTPBP10 / Fold change vs veh, GTPBP10 / RFU, CNEP1R1 / Fold change vs veh, CNEP1R1 / RFU, BIVM-ERCC5 /// ERCC5 / Fold change vs veh, BIVM-ERCC5 /// ERCC5 / RFU, ILF3 / Fold change vs veh, ILF3 / RFU 11762660_at / Fold change /veh 11762660_at / RFU VCAN (11757783_s_at) / Fold change /veh VCAN (11757783_s_at) / RFU DDX43 (11728927_at) / Fold change /veh DDX43 (11728927_at) / RFU KRT8 (11758188_x_at) / Fold change /veh KRT8 (11758188_x_at) / RFU NKD1 (11759106_at) / Fold change /veh NKD1 (11759106_at) / RFU SRD5A1 (11742802_a_at) / Fold change /veh SRD5A1 (11742802_a_at) / RFU TPSAB1 /// TPSB2 (11721975_s_at) / Fold change /veh TPSAB1 /// TPSB2 (11721975_s_at) / RFU GSTM3 (11746129_a_at) / Fold change /veh GSTM3 (11746129_a_at) / RFU IL23R (11737362_x_at) / Fold change /veh IL23R (11737362_x_at) / RFU TMEM51 (11727254_a_at) / Fold change /veh TMEM51 (11727254_a_at) / RFU PIWIL2 (11732686_x_at) / Fold change /veh PIWIL2 (11732686_x_at) / RFU ORM1 (11744905_x_at) / Fold change /veh ORM1 (11744905_x_at) / RFU CCDC152 (11743942_at) / Fold change /veh CCDC152 (11743942_at) / RFU ECM1 (11717891_a_at) / Fold change /veh ECM1 (11717891_a_at) / RFU IL23R (11748794_a_at) / Fold change /veh IL23R (11748794_a_at) / RFU TNFAIP8L3 (11732012_x_at) / Fold change /veh TNFAIP8L3 (11732012_x_at) / RFU MBOAT4 (11741988_at) / Fold change /veh MBOAT4 (11741988_at) / RFU 11764193_at / Fold change /veh 11764193_at / RFU TMEM53 (11763286_at) / Fold change /veh TMEM53 (11763286_at) / RFU MAGEB2 (11727129_at) / Fold change /veh MAGEB2 (11727129_at) / RFU TMEM200A (11744735_a_at) / Fold change /veh TMEM200A (11744735_a_at) / RFU CCDC152 (11751479_a_at) / Fold change /veh CCDC152 (11751479_a_at) / RFU FAM211A (11726209_a_at) / Fold change /veh FAM211A (11726209_a_at) / RFU RGS16 (11746705_a_at) / Fold change /veh RGS16 (11746705_a_at) / RFU VCAN (11755009_s_at) / Fold change /veh VCAN (11755009_s_at) / RFU RHOB (11743442_s_at) / Fold change /veh RHOB (11743442_s_at) / RFU RGS16 (11720943_a_at) / Fold change /veh RGS16 (11720943_a_at) / RFU RGS16 (11720944_at) / Fold change /veh RGS16 (11720944_at) / RFU, VPS4B / Fold change vs veh, VPS4B / RFU, CREB1 / Fold change vs veh, CREB1 / RFU, DNAJC13 / Fold change vs veh, DNAJC13 / RFU, GNAQ / Fold change vs veh, GNAQ / RFU, CDK5R1 / Fold change vs veh, CDK5R1 / RFU, ZRANB3 / Fold change vs veh, ZRANB3 / RFU, CUL4A / Fold change vs veh, CUL4A / RFU, CCNY / Fold change vs veh, CCNY / RFU, UFL1 / Fold change vs veh, UFL1 / RFU, COG3 / Fold change vs veh, COG3 / RFU, DIAPH2 / Fold change vs veh, DIAPH2 / RFU, SKA2 / Fold change vs veh, SKA2 / RFU, AFF3 / Fold change vs veh, AFF3 / RFU, LMF1 / Fold change vs veh, LMF1 / RFU, IPO11 / Fold change vs veh, IPO11 / RFU, DFFB / Fold change vs veh, DFFB / RFU, FOXP1 / Fold change vs veh, FOXP1 / RFU, CARD8 / Fold change vs veh, CARD8 / RFU, STRN3 / Fold change vs veh, STRN3 / RFU, ADK / Fold change vs veh, ADK / RFU, RASSF2 / Fold change vs veh, RASSF2 / RFU, WIPF1 / Fold change vs veh, WIPF1 / RFU, LARP1B / Fold change vs veh, LARP1B / RFU, RASA1 / Fold change vs veh, RASA1 / RFU, RB1 / Fold change vs veh, RB1 / RFU, PPFIA1 / Fold change vs veh, PPFIA1 / RFU, MAT2A / Fold change vs veh, MAT2A / RFU, CCT5 / Fold change vs veh, CCT5 / RFU, WDR92 / Fold change vs veh, WDR92 / RFU, CUX1 / Fold change vs veh, CUX1 / RFU, TTC7A / Fold change vs veh, TTC7A / RFU, TMEM135 / Fold change vs veh, TMEM135 / RFU, DEPTOR / Fold change vs veh, DEPTOR / RFU, CPM / Fold change vs veh, CPM / RFU, DNAJB6 / Fold change vs veh, DNAJB6 / RFU, CACNA2D3 / Fold change vs veh, CACNA2D3 / RFU, DTX4 / Fold change vs veh, DTX4 / RFU, TFCP2 / Fold change vs veh, TFCP2 / RFU, GMCL1 /// GMCL1P1 / Fold change vs veh, GMCL1 /// GMCL1P1 / RFU, AEBP2 / Fold change vs veh, AEBP2 / RFU, SNHG1 /// SNORD22 /// SNORD25 /// SNORD26 /// SNORD27 /// SNORD28 /// SNORD29 /// SNORD31 / Fold change vs veh, SNHG1 /// SNORD22 /// SNORD25 /// SNORD26 /// SNORD27 /// SNORD28 /// SNORD29 /// SNORD31 / Fold change (Aza/veh), C12orf56 (ProbeSet 11735607_a_at) / Fold change (ACY-1035/veh), C12orf56 (ProbeSet 11735607_a_at) / Fold change (Aza/veh), FGFR1OP (ProbeSet 11751329_s_at) / Fold change (ACY-1035/veh), FGFR1OP (ProbeSet 11751329_s_at) / Fold change (Aza/veh), VPS36 (ProbeSet 11739960_a_at) / Fold change (ACY-1035/veh), VPS36 (ProbeSet 11739960_a_at) / RFU SYPL1 (11715823_x_at) / Fold change /veh SYPL1 (11715823_x_at) / RFU IGFBP7 (11715501_s_at) / Fold change /veh IGFBP7 (11715501_s_at) / RFU REEP3 (11722064_at) / Fold change /veh REEP3 (11722064_at) / RFU IGLL1 (11728026_x_at) / Fold change /veh IGLL1 (11728026_x_at): dose or concentration left out as unconfirmed",
  "conditions": "MV-4-11 cells, 48 hours",
  "data": [
    {"smiles": "Nc1ccc(-c2cccs2)cc1NC(=O)c1ccc2c(c1)cc(C1CC1)n2CCN1CCOCC1", "note": "[ACY-1035]", "values": [
      {"measurement": "RFU BIN1 (11741810_x_at)", "result": 33.72, "unit": "RFU"}
    ]}
  ]
}
